For one series, the system named is C3H mice. In words: Peak procedure (30 second reinforcement interval), C3H mice. Type of series: in vivo. The protocol: The peak procedure is a behavioral model designed to assess an animal's ability to learn an appropriate time period in which to perform a task and a time period in which the animal will be rewarded if the task is performed. The model provides information concerning excitatory and inhibitory components of behavior, as subjects must respond to perform a task when appropriate and stop responding in an “empty trial” when time for reward has elapsed and the reward has not been delivered. The task is sensitive to conditions where there is a failure in inhibitory mechanisms, such as seems to be the case for ADHD (Pliszka et al., Biol. Psychiatry, 48:238-46, 2000).
In the peak procedure, mice are trained to work for food that is delivered at the same time in each trial, but withdrawn in some unreinforced trials. Typically, the response rate increases up to a maximum around the reinforcement time, and then decreases to a low toward the end of the trial. The shape of the response rate indicates whether the animal is sensitive to the time of reinforcement. To be able to perform well in this model, the animals need to be able to learn several tasks. First, the animal must make an association between a response (lever pressing, nose poking or key pecking) and the delivery of reward. Second, the animal must be able to perceive and remember time. Third, the animal must act on its remembered time by starting and then stopping or inhibiting the response. Fourth, the animal must be able to compare the elapsed time in the trials with its remembered time to reinforcement. […] Accuracy is measured by looking at the shape of the response function; therefore, if the response function is sharper and centered on the reinforcement time it supports a conclusion that attentional processes have been heightened.
Mice were food deprived to 85-90% of their free-feeding body weight by supplementing food earned during experimental sessions with a measured amount after the session had ended. […]

The next series has as its system wild-type mice. Put plainly: DRL-36s schedule after FR5 conditioning, wild-type mice. Type of series: in vivo. Here is the method:
Experiments were conducted in eight identical mouse operant chambers (16×14×13 cm) with stainless steel grid floors (ENV-307M; Med Associates Inc., Georgia, Vt., USA) housed in sound-insulating and ventilated cubicles. Each chamber was equipped with two ultra-sensitive retractable levers, one on each side of a food cup containing photocells to register nose poke behavior and in which a pellet dispenser delivered 20 mg food pellets (Formula A/I, P.J. Noyes Company Inc., Lancaster, N.H., USA). A red house light (50 lux) was located in the center of the wall opposite to the food cup and levers. Stimulus lights were located above each lever and above the food cup. Experimental sessions were controlled and data were recorded by a computer.
Mice trained on DRL procedure first received operant conditioning. DRL-36s task was adapted from procedures used in rats (O'Donnell and Seiden, supra). Briefly, mice first learned to respond for food under a DRL 6 sec schedule, which means that mice had to wait at least 6 seconds between successive lever presses in order to obtain a food reward. Subsequently the schedule requirement was increased every session in steps of 6 sec to 36 sec (DRL 36 sec). Each session started with the illumination of the house light, the stimulus light above the food cup and the presentation of the left lever for the duration of the session. […] If the mouse presses too soon, no reinforcement is given, the clock is reset to zero, and a new 36-sec waiting period starts. In this way, the DRL-36s schedule task primarily measures waiting strategies which reflect hyperactivity-impulsivity behaviors associated with ADHD. Animals were trained until performances on the DRL 36 sec schedule had stabilized (approximately 25 sessions). All training sessions lasted 60 min and were conducted 5 days per week from Monday-Friday. The total number of lever presses (responses), the total number of reinforcements, and the inter-response times (IRT) are recorded.
Data were analyzed as described elsewhere (Richards et al., J. Exp. Anal. Behav. 60:361-385, 1993; Sabol et al., Psychopharmacology 121:57-65, 1995). The inter-response time (IRT) analysis included three measures for the characterization of DRL 36 sec IRT distributions: peak area, peak location and burst ratio. Only peak area (PkA) and peak location (PkL) are presented. The PkA measure is the area of the obtained IRT distribution of a mouse above the corresponding negative exponential, a computation based on mean of obtained IRT durations excluding the burst component of IRT<3 sec (see Richards et al., supra, for details). […] Thus, decreases in PkA indicate that the mouse's IRT distribution becomes more similar to random performance indicating loss of schedule control. PkL is calculated as the median of the area of the obtained IRT distribution above the corresponding negative exponential.
Mice were conditioned and challenged on a DRL-36s schedule according to the methods of Example 7, with the following modifications. Because 1BKO mice had difficulty learning the DRL-36s schedule following conditioning on an FR1, wild-type and 1BKO mice were conditioned on a fixed rate 5 (FR5) schedule. In FR5, instead of pressing the lever once for a reward, animals have to press 5 times. The rationale for changing the operant conditioning was that by increasing the number of responses necessary for reinforcement, the wild-type mice should have greater difficulty and the 1BKO (which have higher response rates anyway) should have less difficulty getting reinforcements.

The conditions of series [1]: in vivo; cited from earlier work.

In the case of `c1cc2c(c(N3CCNCC3)c1)OCCO2` [eltoprazine, 1-(2,3-dihydro-1,4-benzodioxanyl-5-yl) piperazine], in the series on C3H mice (0.1 and 0.9 mg/kg (FIG. 3)), the “relative response rate curve in peak trials” value is recorded as “cognitive enhancement was observed”. In addition, the “relative response rate curve in peak trials” value in the series with C3H mice (1, 2 and 4 mg/kg (FIGS. 2A-C)) was “flatter than the saline curve”. Moreover, the number of reinforcements result with wild-type mice (0.5 mg/kg and 1 mg/kg i.p. (FIG. 13A)) is given as “significantly decreased reinforcements”. Besides, in the series on wild-type mice (0.5 mg/kg i.p. (FIG. 13B)), the response rate result was “significantly decreased response rates”. For the same compound, in series [1], the absolute bioavailability entry was “about 95%”, the “cumulative renal excretion of unchanged eltoprazine” value is reported as “about 40%”, the “dose dependence of plasma concentrations” value is on record as “increase in a linear dose-dependent manner” and the plasma elimination half-life is 5 to 12 h. Further, in series [1], the terminal half-life was 7 to 9 h and the “time to maximum plasma concentration after administration” value was 1 to 4 h.

Values taken from US7557109B2, “Treatment for attention-deficit hyperactivity disorder” (priority 2001, dated 2009).
